For one assay, the system named is T-47D. Nature of the assay: Caspase cascade activation assay in T-47D cells (N-(Ac-DEVD)-N'-ethoxycarbonyl-R110 fluorogenic substrate). The conditions noted are these: T-47D human breast cancer cells, 24 h incubation; for Caspase activity (Ratio): ratio of net RFU of test compound to control; for EC50: sigmoidal dose-response, read-out: Caspase potency EC50. The format is cell-based. The protocol: (§1) Human breast cancer cell lines T-47D and ZR-75-1 were grown according to media component mixtures designated by American Type Culture Collection+10% FCS (Invitrogen Corporation), in a 5% CO2-95% humidity incubator at 37° C. T-47D and ZR-75-1 cells were maintained at a cell density between 30 and 80% confluency at a cell density of 0.1 to 0.6×10^6 cells/mL. Cells were harvested at 600×g and resuspended at 0.65×10^6 cells/mL into appropriate media+10% FCS. An aliquot of 45 μl of cells was added to a well of a 96-well microtiter plate containing 5 μl of a 10% DMSO in RPMI-1640 media solution containing about […] of 2-amino-3-cyano-4-(5-methyl-pyridin-3-yl)-7-methyl-4H-pyrrolo[2,3-h]chromene (Example 10) or other test compound (0.016 to 1 μM final). An aliquot of 45 μl of cells was added to a well of a 96-well microtiter plate containing 5 μl of a 10% DMSO in RPMI-1640 media solution without test compound as the control sample. The samples were mixed by agitation and then incubated at 37° C. for 24 h in a 5% CO2-95% humidity incubator. After incubation, the samples were removed from the incubator and 50 μl of a solution containing 20 μM of N-(Ac-DEVD)-N′-ethoxycarbonyl-R110 (SEQ ID No:1) fluorogenic substrate (Cytovia, Inc.; U.S. Pat. No. 6,335,429), 20% sucrose (Sigma), 20 mM DTT (Sigma), 200 mM NaCl (Sigma), 40 mM Na PIPES buffer pH 7.2 (Sigma), and 500 μg/ml lysolecithin (Calbiochem) was added. The samples were mixed by agitation and incubated at room temperature. Using a fluorescent plate reader (Model 1420 Wallac Instruments), an initial reading (T=0) was made approximately 1-2 min after addition of the substrate solution, employing excitation at 485 nm and emission at 530 nm, to determine the background fluorescence of the control sample. After the 3 h incubation, the samples were read for fluorescence as above (T=3 h).
(§2) The Relative Fluorescence Unit values (RFU) were used to calculate the sample readings as follows: RFU(T=3h)−Control RFU(T=0)=Net RFU(T=3h) The activity of caspase cascade activation was determined by the ratio of the net RFU value for 2-amino-3-cyano-4-(5-methyl-pyridin-3-yl)-7-methyl-4H-pyrrolo[2,3-h]chromene or other test compound to that of control samples. The EC50 (nM) was determined by a sigmoidal dose-response calculation (Prism 2.0, GraphPad Software Inc.).

The test system of a further assay is ZR-75-1. Nature of the assay: Caspase cascade activation assay in ZR-75-1 cells (N-(Ac-DEVD)-N'-ethoxycarbonyl-R110 fluorogenic substrate). The format is cell-based. The note with it: ZR-75-1 human breast cancer cells, 24 h incubation; for Caspase activity (Ratio): ratio of net RFU of test compound to control; for EC50: sigmoidal dose-response, read-out: Caspase potency EC50. The protocol: as §1, §2

Read-outs that look alike come from different tables or passages of the source.

As for “2-Amino-3-cyano-4-(5-methyl-pyridin-3-yl)-7-methyl-4H-imidazo[4,5-h]chromene [Example 14]”, in the assay with T-47D, the “Caspase activity (Ratio)” value came out at 8.0 and the concentration giving a half-maximal response (EC50) is 19.8 nM. Further, in the assay with ZR-75-1, the “Caspase activity (Ratio)” value came out at 9.9 and the half-maximal effective concentration (EC50) is 10.4 nM.
The matching figures for “2-Amino-4-(3-bromo-4,5-dimethoxyphenyl)-3-cyano-7-(2-diethyl-amino-ethyl)-4H-pyrrolo[2,3-h]chromene [Example 6]”: 3.3, 413 nM, 7.0 and 259 nM.
For “2-Amino-4-(3-bromo-4,5-dimethoxyphenyl)-3-cyano-7-methyl-4H-imidazo[4,5-h]chromene [Example 12]”, in that order: 5.4, 1.6 nM, 8.5 and 1.5 nM.
For “2-Amino-4-(5-bromo-pyridin-3-yl)-3-cyano-7-methyl-4H-imidazo[4,5-h]chromene [Example 13]”, in that order: 8.8, 6.8 nM, 8.0 and 3.2 nM.
Regarding `Cn1ccc2c3c(ccc21)C(c1cncc(C#N)c1)C(C#N)=C(N)O3` (stereo not drawn) [Example 1, 2-Amino-4-(5-cyano-pyridin-3-yl)-3-cyano-7-methyl-4H-pyrrolo[2,3-h]chromene], the figures for the EC50 with T-47D (T47D) and with ZR-75-1 were 25.5 nM and 6.5 nM, respectively. The figures for the “Caspase activity (Ratio)” value in the assay with T-47D and in the assay on ZR-75-1 were 8.3 and 5.2, respectively.
With `Cc1cncc(C2C(C#N)=C(N)Oc3c2ccc2c3ccn2C)n1` (stereo not drawn) [Example 2, 2-Amino-3-cyano-7-methyl-4-(6-methyl-pyrazin-2-yl)-4H-pyrrolo[2,3-h]chromene], the EC50 in the assay on T-47D (T47D) stood at 110 nM; in the assay on ZR-75-1, 41.3 nM. Further, the entries for the “Caspase activity (Ratio)” value in the assay on T-47D and in the assay with ZR-75-1 were 8.2 and 4.3, respectively.
For `Cn1ccc2c3c(ccc21)C(c1cnc2ccccc2n1)C(C#N)=C(N)O3` (stereo not drawn) [Example 3, 2-Amino-3-cyano-7-methyl-4-(quinoxalin-2-yl)-4H-pyrrolo[2,3-h]-chromene], the results for the EC50 in the assay on T-47D (T47D) and in the assay with ZR-75-1 were 58.1 nM and 27.8 nM, respectively. In addition, the “Caspase activity (Ratio)” value with T-47D is recorded as 5.6; with ZR-75-1, 3.1.
For `CCn1ccc2c3c(ccc21)C(c1cc(Br)c(OC)c(OC)c1)C(C#N)=C(N)O3` (stereo not drawn) [Example 4, 2-Amino-4-(3-bromo-4,5-dimethoxyphenyl)-3-cyano-7-ethyl-4H-pyrrolo[2,3-h]chromene], in that order: 14 nM, 13.1 nM, 6.6 and 9.2.
For `COc1cc(C2C(C#N)=C(N)Oc3c2ccc2c3ccn2CC2CC2)cc(Br)c1OC` (stereo not drawn) [Example 5, 2-Amino-4-(3-bromo-4,5-dimethoxyphenyl)-3-cyano-7-cyclopropylmethyl-4H-pyrrolo[2,3-h]chromene], in that order: 55.3 nM, 28.6 nM, 4.0 and 3.0.
For `Cn1ccc2c3c(ccc21)C(c1cncc(Cl)c1)C(C#N)=C(N)O3` (stereo not drawn) [Example 7, 2-Amino-4-(5-chloro-pyridin-3-yl)-3-cyano-7-methyl-4H-pyrrolo[2,3-h]chromene], in that order: 6.7 nM, 2.7 nM, 5.1 and 13.1.
On to `Cn1ccc2c3c(ccc21)C(c1c[nH]c2ccccc12)C(C#N)=C(N)O3` (stereo not drawn) [Example 8, 2-Amino-3-cyano-4-(indol-3-yl)-7-methyl-4H-pyrrolo[2,3-h]chromene], for which the figures for the concentration for a half-maximal effect (EC50) in the assay on T-47D (T47D) and in the assay with ZR-75-1 were 58.7 nM and 55 nM, respectively. Further, the results for the “Caspase activity (Ratio)” value in the assay with T-47D and in the assay on ZR-75-1 were 3.8 and 8.9, respectively.
The matching figures for `Cn1ccc2c3c(ccc21)C(c1cnc(O)c(Cl)c1)C(C#N)=C(N)O3` (stereo not drawn) [Example 9, 2-Amino-4-(5-chloro-6-hydroxy-pyridin-3-yl)-3-cyano-7-methyl-4H-pyrrolo[2,3-h]chromene]: 14.2 nM, 6.2 nM, 8.3 and 7.8.
For `Cc1cncc(C2C(C#N)=C(N)Oc3c2ccc2c3ccn2C)c1` (stereo not drawn) [Example 10, 2-Amino-3-cyano-4-(5-methyl-pyridin-3-yl)-7-methyl-4H-pyrrolo[2,3-h]chromene], in that order: 2.3 nM, 1.6 nM, 3.1 and 6.6.
The matching figures for `Cn1ccc2c3c(ccc21)C(c1cncc(Br)c1)C(C#N)=C(N)O3` (stereo not drawn) [Example 11, 2-Amino-4-(5-bromo-pyridin-3-yl)-3-cyano-7-methyl-4H-pyrrolo [2,3-h]chromene]: 2.9 nM, 1.1 nM, 4.6 and 4.1.
Consider `COc1cc(C2C(C#N)=C(N)Oc3c2ccc2c3ccn2C)cc(Br)c1OC` (stereo not drawn) [Example 16, 2-Amino-4-(3-bromo-4,5-dimethoxyphenyl)-3-cyano-7-methyl-4H-pyrrolo[2,3-h]chromene], for which the EC50 in the assay on T-47D (T47D) was 1.6 nM; with ZR-75-1, 1 nM. Further, the “Caspase activity (Ratio)” value with T-47D was determined as 8.1; in the assay with ZR-75-1, 11.7.
`COc1cc(C2C(C#N)=C(N)Oc3c2ccc2c3ccn2CO)cc(Br)c1OC` (stereo not drawn) [Example 17, 2-Amino-4-(3-bromo-4,5-dimethoxyphenyl)-3-cyano-7-hydroxymethyl-4H-pyrrolo[2,3-h]chromene]: the figures for the EC50 in the assay with T-47D (T47D) and with ZR-75-1 were 2.1 nM and 1.6 nM, respectively. The “Caspase activity (Ratio)” value in the assay on T-47D stood at 7.2; with ZR-75-1 it was 3.3.
Turning to `COc1cc(C2C(C#N)=C(N)Oc3c2ccc2c3ccn2C)cc(Br)c1O` (stereo not drawn) [Example 18, 2-Amino-4-(3-bromo-4-hydroxy-5-methoxyphenyl)-3-cyano-7-methyl-4H-pyrrolo[2,3-h]chromene], the EC50 in the assay on T-47D (T47D) is 6 nM; in the assay on ZR-75-1, 3.4 nM. The “Caspase activity (Ratio)” value with T-47D came to 4.0; with ZR-75-1 it was 6.6.
Take `COc1cc(C2C(C#N)=C(N)Oc3c2ccc2c3ccn2CC2CO2)cc(Br)c1OC` (stereo not drawn) [Example 19, 2-Amino-4-(3-bromo-4,5-dimethoxyphenyl)-3-cyano-7-oxiranylmethyl-4H-pyrrolo[2,3-h]chromene]: the figures for the concentration for a half-maximal effect (EC50) in the assay on T-47D (T47D) and with ZR-75-1 were 231 nM and 107 nM, respectively. Also, the “Caspase activity (Ratio)” value in the assay on T-47D turned out to be 10.2; with ZR-75-1 it was 11.7.
For the compound `Cc1cncc(C2C(C#N)=C(N)Oc3c2ccc2c3ccn2CO)c1` (stereo not drawn) [Example 20, 2-Amino-3-cyano-4-(5-methyl-pyridin-3-yl)-7-hydroxymethyl-4H-pyrrolo[2,3-h]chromene], the results for the half-maximal effective concentration (EC50) with T-47D (T47D) and in the assay with ZR-75-1 were 3.7 nM and 2.4 nM, respectively. Also, the “Caspase activity (Ratio)” value with T-47D was 4.7; in the assay on ZR-75-1 it was 6.3.
The matching figures for `N#CC1=C(N)Oc2c(ccc3c2ccn3CO)C1c1cncc(Br)c1` (stereo not drawn) [Example 21, 2-Amino-4-(5-bromo-pyridin-3-yl)-3-cyano-7-hydroxymethyl-4H-pyrrolo[2,3-h]chromene]: 3 nM, 1.6 nM, 2.2 and 4.4.
On to `COc1cc(C2C(C#N)=C(N)Oc3c2ccc2c3ccn2C)cc(Br)c1OC(C)=O` (stereo not drawn) [Example 22, 2-Amino-4-(4-acetoxy-3-bromo-5-methoxyphenyl)-3-cyano-7-methyl-4H-pyrrolo[2,3-h]chromene], for which the EC50 in the assay with T-47D (T47D) turned out to be 3.4 nM; in the assay on ZR-75-1, 2 nM. Also, the “Caspase activity (Ratio)” value was 5.3 in the assay on T-47D and 7.2 in the assay on ZR-75-1.

Source of the values: patent US7528164B2, “Substituted 4-aryl-4h-pyrrolo[2,3-h]chromenes and analogs as activators of caspases and inducers of apoptosis and the use thereof” (Cytovia, Inc., priority 2002, dated 2009).
